The text below walks through data of patent US4362667A, “Optical isomers of 4-amino-N-(1-cyclohexyl-3-pyrrolidinyl)-N-methylbenzamide” (A. H. Robins Company, Inc., priority 1981, dated 1982).

For this data set, the system named is rat. Description: Cataleptic effects. The data set is classed as in vivo. Particulars: fumarate salt, expressed as free base. The text has this: The procedure used for determing cataleptic effects of the fumarate salte was based on that of Tedeschi et al., Arch. Int. Pharmacodyn.

Take `CN(C(=O)c1ccc(N)cc1)C1CCN(C2CCCCC2)C1` (racemic) [± racemate, 4-Amino-N-(1-cyclohexyl-3-pyrrolidinyl)-N-methylbenzamide]: the “cataleptic effect, Summary” value by setting is: (IP) “NSE to 100”; (PO) “NSE to 200”. For `CN(C(=O)c1ccc(N)cc1)C1CCN(C2CCCCC2)C1` (single isomer, unassigned; (+)) [(+)-isomer, (+)-4-Amino-N-(1-cyclohexyl-3-pyrrolidinyl)-N-methylbenzamide], the “cataleptic effect, Summary” value (IP) is listed as “NSE to 100” and the “cataleptic effect, Summary” value (PO) is on record as “NSE to 200”. On to `CN(C(=O)c1ccc(N)cc1)C1CCN(C2CCCCC2)C1` (single isomer, unassigned; (-)) [(-)-isomer, (-)-4-amino-N-(1-cyclohexyl-3-pyrrolidinyl)-N-methylbenzamide], for which the “cataleptic effect, Ed50 (estimated)” value (PO) is on record as approximately 80 mg/kg.
